# Like-named read-outs stand apart in the source and are kept apart here.
# Legend:
# [1] = Stability of six compounds in rat plasma (QC samples); format: in vitro ADME; conditions: n = 6
# Method: The stabilities of the six compounds in rat plasma were evaluated by analyzing QC samples under different conditions. […] Long-term stability was tested by storing QC samples at -80°C for one month. RSD was evaluated by analyzing six replicate samples. The stability of the six compounds was evaluated under various conditions.
# [2] = Pharmacokinetic study in rats after oral administration of raw/honey-roasting licorice water decoction (UPLC-MS/MS of plasma); format: in vivo, Wistar rats; conditions: for AUC(0-t) / Cmax / Tmax / AUC0-24h: 2.7 g (crude drug)/kg, rat plasma, n = 5; for AUC(0-t): read-out: AUC0-24h
# Method: Healthy male Wistar rats (weighing 200 ± 20 g) were obtained from the Laboratory Animal Centre of Shanghai Jiao Tong University (Shanghai, China). […] All protocols and procedures were approved by the Shanghai Jiao Tong University Animal Care and Use Committee.
# Chromatographic separation was performed on a ZORBAX Eclipse Plus C18 column (50 mm × 2.1 mm, 1.8 µm). […] The flow rate was set at 0.4 mL/min. The column temperature and injection volume were set at 40°C and 2.0 µL, respectively. An MS system operating in negative electrospray ionization mode was employed in this study. […] The DP for each compound and IS were -120, -100, -100, -100, -100, -80, and -100 V, respectively. The collision energy for each compound and IS were -58, -32, -42, -32, -32, -65, and -20 V, respectively. The ion spray needle voltage was set at -4500 V, and the source temperature was 500°C. Following optimization of the setting parameters, the ESI source was operated with the GS1, GS2, and CUR (Nitrogen) set at 35, 35, and 40 psi, respectively.
# Fifty microliters of the plasma samples (or standard plasma samples and QC samples) were spiked with 5 µL of IS solution (10.00 µg/mL) and 200 µL of acetonitrile. The mixture was vortexed for 30 s and centrifuged at 14,000 rpm for 15 min at 4°C. The supernatant was collected and evaporated in a 37°C water bath under a nitrogen stream. The residue was redissolved with 500 µL of 70% acetonitrile.
# After being housed in a controlled environment for a week, rats were randomly divided into three groups (n = 5 for each group) and were then orally administered a raw, 25% honey-roasting, or 50% honey-roasting licorice water decoction at a dosage of 2.7 g (crude drug)/kg. Blood samples of 0.15 mL were taken from the suborbital vein into heparinized tubes at 0.17, 0.5, 1, 1.5, 2, 2.5, 3, 4, 6, 8, 12, and 24 h after oral administration of the licorice water decoction. The blood samples were immediately centrifuged at 10,000 rpm for 15 min. The separated plasma samples were frozen at -80°C before analysis.
# The pharmacokinetic parameters of the six compounds were calculated by […] 4.4.1 (Thermo Electron Corporation, Philadelphia, PA, USA) software. […] Data were presented as the mean ± SD. Statistical analyses of all the data obtained were evaluated using one-way ANOVA (SPSS 17.0).
# [3] = set-up: method as in PMID 8197226, PMID 1432618; conditions: cited from earlier work
# [4] = At 4°C for 24 h, postpreparative QC sample in autosampler, high concentration level
# [5] = At 4°C for 24 h, postpreparative QC sample in autosampler, low concentration level
# [6] = At 4°C for 24 h, postpreparative QC sample in autosampler, medium concentration level
# [7] = At -80°C for 1 month, rat plasma QC sample, low concentration level
# [8] = At -80°C for 1 month, rat plasma QC sample, medium concentration level
# [9] = male, Wistar, rat, plasma, po, oral 25% honey-roasting licorice water decoction
# [10] = male, Wistar, rat, plasma, po, oral 25% honey-roasting licorice water decoction, read-out: Cmax
# [11] = male, Wistar, rat, plasma, po, oral 25% honey-roasting licorice water decoction, read-out: Tmax
# [12] = male, Wistar, rat, plasma, po, oral 50% honey-roasting licorice water decoction
# [13] = male, Wistar, rat, plasma, po, oral 50% honey-roasting licorice water decoction, read-out: Cmax
# [14] = male, Wistar, rat, plasma, po, oral 50% honey-roasting licorice water decoction, read-out: Tmax
# [15] = male, Wistar, rat, plasma, po, oral raw licorice water decoction
# [16] = male, Wistar, rat, plasma, po, oral raw licorice water decoction, read-out: Cmax
# [17] = oral raw licorice water decoction
# [18] = At -80°C for 1 month, rat plasma QC sample, high concentration level
# [19] = 25% honey-roasting group vs raw group, rat, oral
# [20] = male, Wistar, rat, in vivo, po, oral 50% honey-roasting licorice water decoction
# [21] = oral 25% honey-roasting licorice water decoction
# [22] = oral 50% honey-roasting licorice water decoction
Structure (SMILES),"Stability, Average [1, 4] [%]","Stability, Average [1, 5] [%]","Stability, Average [1, 6] [%]","Stability, Average [1, 7] [%]","Stability, Average [1, 8] [%]","AUC(0-t) [2, 9] [ng·h/mL]","Cmax [2, 10] [ng/mL]","Tmax [2, 11] [h]","AUC(0-t) [2, 12] [ng·h/mL]","Cmax [2, 13] [ng/mL]","Tmax [2, 14] [h]","AUC(0-t) [2, 15] [ng·h/mL]","Cmax [2, 16] [ng/mL]","Tmax [2, 17] [h]","Stability, Average [1, 18] [%]","AUC(0-t) [2, 20] [ng·h/mL]",further results
"CC1(C)[C@@H](O)CC[C@]2(C)[C@H]3C(=O)C=C4[C@@H]5C[C@@](C)(C(=O)O)CC[C@]5(C)CC[C@@]4(C)[C@]3(C)CC[C@@H]12 [GA, glycyrrhetinic acid]",100.9,96.4,96.2,96.2,102.1,7000 ± 1290,651 ± 200,6.8,5180 ± 2540,608 ± 278,6.8,6980 ± 4800,572 ± 311,8.0,,,
"CC1(C)[C@@H](O[C@H]2O[C@H](C(=O)O)[C@@H](O)[C@H](O)[C@H]2O[C@@H]2O[C@H](C(=O)O)[C@@H](O)[C@H](O)[C@H]2O)CC[C@]2(C)[C@H]3C(=O)C=C4[C@@H]5C[C@@](C)(C(=O)O)CC[C@]5(C)CC[C@@]4(C)[C@]3(C)CC[C@@H]12 [Glycyrrhizin, glycyrrhizin]",,,,,,,,,,,,,,,,,oral bioavailability [3]: extremely low
"O=C(/C=C/c1ccc(O)cc1)c1ccc(O)cc1O [ILG, isoliquiritigenin]",93.1,95.7,96.4,94.7,85.3,9.32 ± 0.68,1.12 ± 0.25,1.5,6.13 ± 0.8,0.56 ± 0.12,1.8,6.53 ± 2.34,0.75 ± 0.28,,87.6,,"Cmax higher than in the raw group [2, 19]: 49.3%; AUC0-24h increased over the raw licorice group ([2]; honey-roasting licorice vs raw licorice group, rat, oral): 42.7%; Tmax ([2]; male, Wistar, rat, plasma, po, oral raw licorice water decoction, read-out: Tmax): 1.5 h"
"O=C(/C=C/c1ccc(O[C@@H]2O[C@H](CO)[C@@H](O)[C@H](O)[C@H]2O)cc1)c1ccc(O)cc1O [ILQ, isoliquiritin]",95.7,90.2,89.3,89.4,94.2,,,,,,,,,,100.1,246 ± 7.67,"Cmax lower than in the raw group [2, 19]: 48.07%; Tmax longer than in the raw group [2, 19]: 1.75 times; Tmax ([2]; male, Wistar, in vivo, oral 25% honey-roasting licorice water decoction, read-out: Tmax): 0.7 h; AUC(0-t) ([2]; male, Wistar, rat, in vivo, po, oral 25% honey-roasting licorice water decoction): 260 ± 8.53 ng·h/mL; Cmax ([2]; male, Wistar, rat, in vivo, po, oral 25% honey-roasting licorice water decoction, read-out: Cmax): 24.8 ± 3.63 ng/mL; Cmax ([2]; male, Wistar, rat, in vivo, po, oral 50% honey-roasting licorice water decoction, read-out: Cmax): 20.6 ± 5.82 ng/mL; AUC(0-t) ([2]; male, Wistar, rat, in vivo, po, oral raw licorice water decoction): 257 ± 19.3 ng·h/mL; Cmax ([2]; male, Wistar, rat, in vivo, po, oral raw licorice water decoction, read-out: Cmax): 47.8 ± 2.62 ng/mL"
"O=C1C[C@@H](c2ccc(O)cc2)Oc2cc(O)ccc21 [LG, liquiritigenin]",93.9,90.8,87.7,92.8,,,,,,,,,,2.4,96.5,,"AUC0-24h [2, 21]: 85.36 ± 14.70 ng·h/mL; Tmax [2, 21]: 2.3 h; AUC0-24h [2, 22]: 47.74 ± 8.03^∗Δ h·ng /mL; Tmax [2, 22]: 2.5 h; AUC0-24h [2, 17]: 84.29 ± 33.71 ng·h/mL"
"O=C1C[C@@H](c2ccc(O[C@@H]3O[C@H](CO)[C@@H](O)[C@H](O)[C@H]3O)cc2)Oc2cc(O)ccc21 [LQ, liquiritin]",99.5,90.9,88.3,96.4,95.6,479 ± 65.2,203 ± 54.1,,,87.9 ± 8.08,,520 ± 94.5,,,89.5,319 ± 50,"Cmax lower than in the raw licorice group ([2]; 50% honey-roasting group vs raw licorice group, rat, oral): 53.96%; Cmax [2, 17]: 191.00 ± 80.23 ng/mL"

# From PMC6033295, “The Effects of the Honey-Roasting Process on the Pharmacokinetics of the Six Active Compounds of Licorice” (Evidence-based Complementary and Alternative Medicine : eCAM, 2018)
